The values that follow come from article PMC11649784, “Re-design and evaluation of diclofenac-based carborane-substituted prodrugs and their anti-cancer potential” (Scientific Reports, 2024).

What is called IC50 is the concentration at which inhibition is half-maximal.

Test [1] deals with MC38 cells. Description: MTT viability assay, MC38. The test is classed as cell-based, murine. The following applies: 72 h, mean±SD; read-out: IC50 [μM] (n = 3) MC38 MTT. The protocol: (§1) In a preliminary test, the stability of all compounds dissolved in the cell medium (c = 100 μM, T = [drawing 47] ) for 72 h was validated by HPLC (see Supporting Information). Cell lines were incubated with the respective compounds in a concentration range of 1.56–100 μM for 72 h, and cell viability was measured using 3-(4,5-dimethylthiazol-2-yl)-2,5-diphenyltetrazolium bromide (MTT) and crystal violet (CV) assays. […] As MTT tests gave inconsistent results, possibly due to interference of the compound with mitochondrial respiration, for the further evaluation only the CV results are considered[97],[98].
(§2) The biological study was performed on a murine colon adenocarcinoma cell line (MC38), two human colorectal carcinoma cell lines (HCT116 and HT29), and a human fetal lung fibroblast cell line (MRC-5). All cell lines are commercially available and were obtained from the American Type Culture Collection (ATCC). The human cell lines were kept in HEPES-buffered RPMI-1640 medium supplemented with 10 [drawing 141] heat-inactivated FCS, 2 mM L-glutamine, 0.01 [drawing 142] sodium pyruvate, penicillin (100 units mL^−1), and, streptomycin ( [drawing 143] mL^-1). The MC38 cell line was maintained in DMEM medium additionally supplemented with 1 [drawing 144] non-essential amino acids. Cells were grown at [drawing 145] in a humidified atmosphere with 5 [drawing 146] [drawing 147] . Peritoneal exudate cells (PECs) were isolated from healthy C57BL/6 mice (males, n = 3, 3 months old, weight 22–25 g) by performing an ice-cold PBS peritoneal lavage. Mice were sacrificed by cervical dislocation. Cells were cultivated for 4 h when nonadherent population was removed by washing in PBS, and additionally cultivated overnight in HEPES-buffered RPMI-1640 medium supplemented with 5 [drawing 148] heat-inactivated FCS before treatment with experimental drugs. Animal handling and protocol for isolation of PECs were performed according to European Union rules, and the ARRIVE guidelines 2.0.
(§3) For the viability tests, MC38, HCT116, and HT29 cells were seeded in 96-well plates at a density of 2 [drawing 149] 103, 5 [drawing 150] 103, and 6 [drawing 151] 10^3 cells/well, respectively. To determine whether the drug affected the viability of healthy, non-malignant cells, MRC-5 and PECs were seeded in 96-well plates at a density of 8 [drawing 152] 103 and 2 [drawing 153] 10^5 cells/well, respectively. For the flow cytometric analyses, MC38 cells were seeded in 6-well plates at 5 [drawing 154] 10^4 cells/well. For morphological assessment of nuclei and the detection of autophagy, MC38 cells were seeded in 2-well chamber slides at 1.5 [drawing 155] 10^4 cells/well.
(§4) After 72 h, cell viability was determined using MTT and CV tests. First, the supernatant from the wells was discarded and the cells were incubated with an MTT solution (0.5 mg mL^−1). After half an hour, the purple formazan crystals formed were dissolved in DMSO. For CV staining of the cells, the cells were fixed with 4 [drawing 157] PFA for 10 min and then stained with a 0.02 [drawing 158] CV solution for 15 min, all at room temperature (RT). The cells were then washed with tap water, air-dried and the dye was dissolved in 33 [drawing 159] acetic acid. For both viability tests, the absorbance of the developed colors was measured using an automated microplate reader at 570 nm with a reference wavelength of 670 nm. The results were expressed as a percentage of the control values of the untreated cells, which were arbitrarily set at 100 [drawing 160] . IC50 values, defined as 50 [drawing 161] inhibitory concentration, were calculated using a four-parameter logistic function and presented as mean±SD. All biological experiments were performed in triplicates. To evaluate the nature of the detected autophagy, a combined treatment with compound 3 and the autophagy inhibitors chloroquine (Chlq) and 3-methyladenine (3-MA) was carried out. […] After 72 h, cell viability was determined by CV assay.
For orientation: Tetrazolium assays rely on reduction of a dye to a coloured formazan, in cell work by metabolically active cells.

For a further test, the system named is HT29 cells. Description: MTT viability assay, HT29. The format is cell-based, human. Conditions: 72 h, mean±SD; read-out: IC50 [μM] (n = 3) HT29 MTT. The protocol:
as §1, §2, §3, §4

Test [2] has as its system peritoneal exudate cells (PECs). Kind of test: Viability of peritoneal exudate cells. The following applies: column head not given. The format is cell-based, mice. The protocol:
as §2, with “Animal handling and protocol for isolation of PECs were performed according to European Union rules, and the ARRIVE guidelines 2.0.” left out
After 72 h, cell viability was determined using MTT and CV tests. […] For both viability tests, the absorbance of the developed colors was measured using an automated microplate reader at 570 nm with a reference wavelength of 670 nm. The results were expressed as a percentage of the control values of the untreated cells, which were arbitrarily set at 100 [drawing 160] . IC50 values, defined as 50 [drawing 161] inhibitory concentration, were calculated using a four-parameter logistic function and presented as mean±SD. […] To evaluate the nature of the detected autophagy, a combined treatment with compound 3 and the autophagy inhibitors chloroquine (Chlq) and 3-methyladenine (3-MA) was carried out. […] After 72 h, cell viability was determined by CV assay.

The test system of test [3] is MC38 cells. Kind of test: Crystal violet (CV) viability assay, MC38. The test is classed as cell-based, murine. Conditions: 72 h. The protocol: as §1, §2, §3, §4
Another test has as its target T1, human recombinant COX-2 (Homo sapiens, UniProt P35354).
T1 construct: purchased Cayman Chemical Company, Ann Arbor, MI, USA
T1 sequence (P35354 18-604): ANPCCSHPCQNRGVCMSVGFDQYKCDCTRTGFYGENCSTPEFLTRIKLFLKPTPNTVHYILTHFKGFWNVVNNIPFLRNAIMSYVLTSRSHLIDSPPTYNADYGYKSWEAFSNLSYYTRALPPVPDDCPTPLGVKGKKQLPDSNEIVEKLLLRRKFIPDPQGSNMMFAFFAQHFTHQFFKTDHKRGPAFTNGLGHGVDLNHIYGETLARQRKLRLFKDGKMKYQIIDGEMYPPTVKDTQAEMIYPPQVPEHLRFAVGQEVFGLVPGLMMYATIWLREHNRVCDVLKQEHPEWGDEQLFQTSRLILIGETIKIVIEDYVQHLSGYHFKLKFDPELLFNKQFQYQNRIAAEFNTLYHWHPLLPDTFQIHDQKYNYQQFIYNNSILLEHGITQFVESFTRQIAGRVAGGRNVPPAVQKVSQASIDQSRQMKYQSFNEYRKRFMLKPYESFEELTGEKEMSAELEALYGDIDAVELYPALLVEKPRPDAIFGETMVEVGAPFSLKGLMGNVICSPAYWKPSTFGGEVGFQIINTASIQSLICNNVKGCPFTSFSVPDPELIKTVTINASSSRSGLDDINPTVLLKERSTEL
Description: COX Fluorescent Inhibitor Screening Assay, COX-2. The test is classed as biochemical. The protocol:
The COX inhibition activity against ovine COX-1 and human recombinant COX-2 was determined using the COX Fluorescent Inhibitor Screening Assay Kit (Cayman Chemical Company, Ann Arbor, MI, USA) according to the manufacturer’s instructions as reported.

Consider “1-[2-(7,8-dicarba-nido-undecaborate)]- [drawing 126] H-indolium-2-amine [compound 3]”, for which the IC50 with MC38 cells [1] turned out to be 7.9 ± 0.2 µM; in the test on HT29 cells, 17 ± 1.6 µM; with MC38 cells [3] (mean±SD, read-out: IC50 [μM] (n = 3) MC38 CV), 9.5 ± 0.4 µM; at human recombinant COX-2 (absolute IC50, 0.1 to 100 μM in duplicate, 95% CI in brackets) it was 4.58 µM. Further, the “Selectivity index (IC50 value of primary vs. cancer cells), PEC, second cancer cell line column” value in test [2] (presumably HCT116) came to 2.17. Besides, the “Selectivity index (IC50 value of primary vs. cancer cells), PEC, third cancer cell line column” value in test [2] (presumably HT29) was found to be 1.42. In addition, the “Selectivity index (IC50 value of primary vs. cancer cells), PEC, first cancer cell line column” value in test [2] (presumably MC38) came to 2.63. The “cell viability on co-treatment with 3-methyladenine (3-MA)” value in the test on MC38 cells [3] (IC50 concentration of 3 plus 3-MA 1 mM, CV assay) was “further viability decrease”. For the same substance, the “cell viability on co-treatment with chloroquine (Chlq)” value in the test with MC38 cells [3] (IC50 concentration of 3 plus Chlq 20 μM, CV assay) is on record as “further viability decrease”. Moreover, on human recombinant COX-2 (100 μM), the “%Inh. @ 100 μM (n = 2) COX-2” value worked out at 105%. On human recombinant COX-2 (in vitro COX assay, COX-1 and COX-2), the “COX inhibition, in words” value is on record as “moderately active COX-inhibitors”. Further, the “SI1/2 = IC50(COX-1)/IC50(COX-2)” value at human recombinant COX-2 (selectivity index) came out at 3.3.
